{"source": "paper PMC10766964", "about": "“Copper-catalyzed synthesis of pyrazolo[1,5-a]pyrimidine based triazole-linked glycohybrids: mechanistic insights and bio-applications” (Scientific Reports, 2024)", "test_system": "MDA-MB-231 (human breast cancer) cell line", "assay": "MTT cell viability assay in MDA-MB-231 cells", "assay_type": "cell-based", "conditions": "Table 2, MDA-MB-231, MTT, 72 h, read-out: Cell viability (%) ± SD", "procedure": "Thus, we screened the synthesized library of pyrazolo[1,5-a]pyrimidin-7-ols 4a–4i. Anticancer activity (in terms of growth inhibition/decreased cell viability with respect to control) of all synthesized compounds (n = 9) was investigated by MTT assay in MDA-MB-231 (human breast cancer) cell line at different concentrations for 72 h. […] Thus, it was aimed to investigate the anticancer activity of a synthesized library of triazole-linked glycohybrids of pyrazolo[1,5-a]pyrimidines. […] The MTT assay was used to investigate the anticancer activity of twenty-seven synthesized compounds on the growth inhibition and decrement in cell viability of MDA-MB-231 (human breast cancer). Different concentrations were tested for 72 h, and the results were compared to a control. MDA-MB-231, a human breast cancer cell line, was cultured under standard conditions. Specifically, they were grown in Dulbecco’s Modified Eagle’s Medium (DMEM) supplemented with 10% heat-inactivated Fetal Bovine Serum (FBS) and 1% penicillin–streptomycin. The cells were maintained as a monolayer in a 100 mm culture plate and were used for experiments before reaching their 8th passage. Subculturing was performed every third-day using trypsin EDTA treatment. All incubation and maintenance procedures were carried out in a humidified CO2 incubator at 37 °C. To evaluate cell viability, the MTT assay was conducted following standard procedures. After 72 h of cell incubation with or without each compound, cell viability was assessed using MTT (3-(4,5-dimethylthiazol-2-yl)-2,5-diphenyltetrazolium bromide), which is a colorimetric method for determining the number of viable cells in various assays including proliferation, cytotoxicity, or chemosensitivity. The MTT reagent was added to the cells after removal of the medium and incubated for 3 h at 37 °C in the CO2 incubator. The formazan product, which is […] in the tissue culture medium, was dissolved in DMSO, and the absorbance of the formazan product was directly measured at 595 nm using a multimode plate reader without additional processing. The absorbance values are directly proportional to the number of viable cells in culture. The percentage of viable cells in each group was determined relative to the untreated control cells."}
{"compound": "CC(=O)OC[C@H]1O[C@@H](n2cc(COc3cc(-c4ccc(C(C)C)cc4)nc4ccnn34)nn2)[C@H](OC(C)=O)[C@@H](OC(C)=O)[C@@H]1OC(C)=O", "note": "[Compound 9g, (2R,3R,4S,5R,6R)-2-(acetoxymethyl)-6-(4-(((5-(4-isopropylphenyl)pyrazolo[1,5-a]pyrimidin-7-yl)oxy)methyl)-1H-1,2,3-triazol-1-yl)tetrahydro-2H-pyran-3,4,5-triyl triacetate]", "values": [{"measurement": "viability at 10 µM", "value": "110 ± 13.5", "unit": "%"}, {"measurement": "viability at 25 µM", "value": "103 ± 3.51", "unit": "%"}, {"measurement": "viability at 50 µM", "value": "68.5 ± 17.7", "unit": "%"}]}
{"compound": "CC(=O)OC[C@H]1O[C@@H](n2cc(COc3cc(-c4ccc5c(c4)OCO5)nc4ccnn34)nn2)[C@H](OC(C)=O)[C@@H](OC(C)=O)[C@@H]1OC(C)=O", "note": "[Compound 9i, (2R,3R,4S,5R,6R)-2-(acetoxymethyl)-6-(4-(((5-(benzo[d][1,3]dioxol-5-yl)pyrazolo[1,5-a]pyrimidin-7-yl)oxy)methyl)-1H-1,2,3-triazol-1-yl)tetrahydro-2H-pyran-3,4,5-triyl triacetate]", "values": [{"measurement": "viability at 10 µM", "value": "85.1 ± 4.09", "unit": "%"}, {"measurement": "viability at 25 µM", "value": "82.5 ± 2.58", "unit": "%"}, {"measurement": "viability at 50 µM", "value": "80.4 ± 7.36", "unit": "%"}]}
{"compound": "CC(=O)OC[C@H]1O[C@@H](n2cc(COc3cc(-c4ccc(C)cc4)nc4ccnn34)nn2)[C@H](OC(C)=O)[C@@H](OC(C)=O)[C@H]1OC(C)=O", "note": "[Compound 10a, (2R,3S,4S,5R,6R)-2-(acetoxymethyl)-6-(4-(((5-(p-tolyl)pyrazolo[1,5-a]pyrimidin-7-yl)oxy)methyl)-1H-1,2,3-triazol-1-yl)tetrahydro-2H-pyran-3,4,5-triyl triacetate]", "values": [{"measurement": "viability at 10 µM", "value": "81.7 ± 8.36", "unit": "%"}, {"measurement": "viability at 25 µM", "value": "78.5 ± 6.73", "unit": "%"}, {"measurement": "viability at 50 µM", "value": "68.8 ± 10.4", "unit": "%"}]}
{"compound": "COc1ccc(-c2cc(OCc3cn([C@@H]4O[C@H](COC(C)=O)[C@H](OC(C)=O)[C@H](OC(C)=O)[C@H]4OC(C)=O)nn3)n3nccc3n2)cc1", "note": "[Compound 10b, (2R,3S,4S,5R,6R)-2-(acetoxymethyl)-6-(4-(((5-(4-methoxyphenyl)pyrazolo[1,5-a]pyrimidin-7-yl)oxy)methyl)-1H-1,2,3-triazol-1-yl)tetrahydro-2H-pyran-3,4,5-triyl triacetate]", "values": [{"measurement": "viability at 10 µM", "value": "92.5 ± 9.39", "unit": "%"}, {"measurement": "viability at 25 µM", "value": "85.2 ± 8.63", "unit": "%"}, {"measurement": "viability at 50 µM", "value": "70.5 ± 6.24", "unit": "%"}]}
{"compound": "CC(=O)OC[C@H]1O[C@@H](n2cc(COc3cc(-c4ccc(Br)cc4)nc4ccnn34)nn2)[C@H](OC(C)=O)[C@@H](OC(C)=O)[C@H]1OC(C)=O", "note": "[Compound 10c, (2R,3S,4S,5R,6R)-2-(acetoxymethyl)-6-(4-(((5-(4-bromophenyl)pyrazolo[1,5-a]pyrimidin-7-yl)oxy)methyl)-1H-1,2,3-triazol-1-yl)tetrahydro-2H-pyran-3,4,5-triyl triacetate]", "values": [{"measurement": "viability at 10 µM", "value": "79.5 ± 2.43", "unit": "%"}, {"measurement": "viability at 25 µM", "value": "77.8 ± 2.43", "unit": "%"}, {"measurement": "viability at 50 µM", "value": "74 ± 2.62", "unit": "%"}]}
{"compound": "CC(=O)OC[C@H]1O[C@@H](n2cc(COc3cc(-c4ccc(F)cc4)nc4ccnn34)nn2)[C@H](OC(C)=O)[C@@H](OC(C)=O)[C@H]1OC(C)=O", "note": "[Compound 10e, (2R,3S,4S,5R,6R)-2-(acetoxymethyl)-6-(4-(((5-(4-fluorophenyl)pyrazolo[1,5-a]pyrimidin-7-yl)oxy)methyl)-1H-1,2,3-triazol-1-yl)tetrahydro-2H-pyran-3,4,5-triyl triacetate]", "values": [{"measurement": "viability at 10 µM", "value": "78.4 ± 9.97", "unit": "%"}, {"measurement": "viability at 25 µM", "value": "68.6 ± 10.1", "unit": "%"}, {"measurement": "viability at 50 µM", "value": "71.3 ± 6.17", "unit": "%"}]}
{"compound": "CC(=O)OC[C@H]1O[C@@H](n2cc(COc3cc(-c4ccc(C(C)C)cc4)nc4ccnn34)nn2)[C@H](OC(C)=O)[C@@H](OC(C)=O)[C@H]1OC(C)=O", "note": "[Compound 10g, (2R,3S,4S,5R,6R)-2-(acetoxymethyl)-6-(4-(((5-(4-isopropylphenyl)pyrazolo[1,5-a]pyrimidin-7-yl)oxy)methyl)-1H-1,2,3-triazol-1-yl)tetrahydro-2H-pyran-3,4,5-triyl triacetate]", "values": [{"measurement": "viability at 10 µM", "value": "85.2 ± 3.5", "unit": "%"}, {"measurement": "viability at 25 µM", "value": "79.5 ± 8.96", "unit": "%"}, {"measurement": "viability at 50 µM", "value": "78.7 ± 2.56", "unit": "%"}]}
{"compound": "CC(=O)OC[C@H]1O[C@@H](n2cc(COc3cc(-c4ccc5ccccc5c4)nc4ccnn34)nn2)[C@H](OC(C)=O)[C@@H](OC(C)=O)[C@H]1OC(C)=O", "note": "[Compound 10h, (2R,3S,4S,5R,6R)-2-(acetoxymethyl)-6-(4-(((5-(naphthalen-2-yl)pyrazolo[1,5-a]pyrimidin-7-yl)oxy)methyl)-1H-1,2,3-triazol-1-yl)tetrahydro-2H-pyran-3,4,5-triyl triacetate]", "values": [{"measurement": "viability at 10 µM", "value": "75 ± 8.31", "unit": "%"}, {"measurement": "viability at 25 µM", "value": "89.6 ± 9.91", "unit": "%"}, {"measurement": "viability at 50 µM", "value": "57.7 ± 10.8", "unit": "%"}]}
{"compound": "CC(=O)OC[C@H]1O[C@@H](n2cc(COc3cc(-c4ccc5c(c4)OCO5)nc4ccnn34)nn2)[C@H](OC(C)=O)[C@@H](OC(C)=O)[C@H]1OC(C)=O", "note": "[Compound 10i, (2R,3S,4S,5R,6R)-2-(acetoxymethyl)-6-(4-(((5-(benzo[d][1,3]dioxol-5-yl)pyrazolo[1,5-a]pyrimidin-7-yl)oxy)methyl)-1H-1,2,3-triazol-1-yl)tetrahydro-2H-pyran-3,4,5-triyl triacetate]", "values": [{"measurement": "viability at 10 µM", "value": "100 ± 9.67", "unit": "%"}, {"measurement": "viability at 25 µM", "value": "99.25 ± 0.34", "unit": "%"}, {"measurement": "viability at 50 µM", "value": "98.5 ± 1.88", "unit": "%"}]}
{"compound": "CC(=O)OC[C@H]1O[C@H](n2cc(COc3cc(-c4ccc(C)cc4)nc4ccnn34)nn2)[C@@H](OC(C)=O)[C@@H](OC(C)=O)[C@@H]1OC(C)=O", "note": "[Compound 11a, (2R,3R,4S,5S,6S)-2-(acetoxymethyl)-6-(4-(((5-(p-tolyl)pyrazolo[1,5-a]pyrimidin-7-yl)oxy)methyl)-1H-1,2,3-triazol-1-yl)tetrahydro-2H-pyran-3,4,5-triyl triacetate]", "values": [{"measurement": "viability at 10 µM", "value": "98 ± 7.7", "unit": "%"}, {"measurement": "viability at 25 µM", "value": "91.8 ± 7.09", "unit": "%"}, {"measurement": "viability at 50 µM", "value": "96.7 ± 9.12", "unit": "%"}]}
{"compound": "COc1ccc(-c2cc(OCc3cn([C@H]4O[C@H](COC(C)=O)[C@@H](OC(C)=O)[C@H](OC(C)=O)[C@@H]4OC(C)=O)nn3)n3nccc3n2)cc1", "note": "[Compound 11b, (2R,3R,4S,5S,6S)-2-(acetoxymethyl)-6-(4-(((5-(4-methoxyphenyl)pyrazolo[1,5-a]pyrimidin-7-yl)oxy)methyl)-1H-1,2,3-triazol-1-yl)tetrahydro-2H-pyran-3,4,5-triyl triacetate]", "values": [{"measurement": "viability at 10 µM", "value": "99.5 ± 10.2", "unit": "%"}, {"measurement": "viability at 25 µM", "value": "95.2 ± 10.6", "unit": "%"}, {"measurement": "viability at 50 µM", "value": "70.4 ± 10.5", "unit": "%"}]}
{"compound": "CC(=O)OC[C@H]1O[C@H](n2cc(COc3cc(-c4ccc(Br)cc4)nc4ccnn34)nn2)[C@@H](OC(C)=O)[C@@H](OC(C)=O)[C@@H]1OC(C)=O", "note": "[Compound 11c, (2R,3R,4S,5S,6S)-2-(acetoxymethyl)-6-(4-(((5-(4-bromophenyl)pyrazolo[1,5-a]pyrimidin-7-yl)oxy)methyl)-1H-1,2,3-triazol-1-yl)tetrahydro-2H-pyran-3,4,5-triyl triacetate]", "values": [{"measurement": "viability at 10 µM", "value": "81.3 ± 7.65", "unit": "%"}, {"measurement": "viability at 25 µM", "value": "76.5 ± 6.58", "unit": "%"}, {"measurement": "viability at 50 µM", "value": "72.5 ± 8.45", "unit": "%"}]}
{"compound": "CC(=O)OC[C@H]1O[C@H](n2cc(COc3cc(-c4ccc(Cl)cc4)nc4ccnn34)nn2)[C@@H](OC(C)=O)[C@@H](OC(C)=O)[C@@H]1OC(C)=O", "note": "[Compound 11d, (2R,3R,4S,5S,6S)-2-(acetoxymethyl)-6-(4-(((5-(4-chlorophenyl)pyrazolo[1,5-a]pyrimidin-7-yl)oxy)methyl)-1H-1,2,3-triazol-1-yl)tetrahydro-2H-pyran-3,4,5-triyl triacetate]", "values": [{"measurement": "viability at 10 µM", "value": "95.8 ± 5.85", "unit": "%"}, {"measurement": "viability at 25 µM", "value": "92.1 ± 6", "unit": "%"}, {"measurement": "viability at 50 µM", "value": "89 ± 1.1", "unit": "%"}]}
{"compound": "CC(=O)OC[C@H]1O[C@H](n2cc(COc3cc(-c4ccc(F)cc4)nc4ccnn34)nn2)[C@@H](OC(C)=O)[C@@H](OC(C)=O)[C@@H]1OC(C)=O", "note": "[Compound 11e, (2R,3R,4S,5S,6S)-2-(acetoxymethyl)-6-(4-(((5-(4-fluorophenyl)pyrazolo[1,5-a]pyrimidin-7-yl)oxy)methyl)-1H-1,2,3-triazol-1-yl)tetrahydro-2H-pyran-3,4,5-triyl triacetate]", "values": [{"measurement": "viability at 10 µM", "value": "98.4 ± 3.62", "unit": "%"}, {"measurement": "viability at 25 µM", "value": "90.1 ± 6.77", "unit": "%"}, {"measurement": "viability at 50 µM", "value": "88.6 ± 6.27", "unit": "%"}]}
{"compound": "CC(=O)OC[C@H]1O[C@H](n2cc(COc3cc(-c4ccc(C(F)(F)F)cc4)nc4ccnn34)nn2)[C@@H](OC(C)=O)[C@@H](OC(C)=O)[C@@H]1OC(C)=O", "note": "[Compound 11f, (2R,3R,4S,5S,6S)-2-(acetoxymethyl)-6-(4-(((5-(4-(trifluoromethyl)phenyl)pyrazolo[1,5-a]pyrimidin-7-yl)oxy)methyl)-1H-1,2,3-triazol-1-yl)tetrahydro-2H-pyran-3,4,5-triyl triacetate]", "values": [{"measurement": "viability at 10 µM", "value": "79.6 ± 4.7", "unit": "%"}, {"measurement": "viability at 25 µM", "value": "74.5 ± 4.44", "unit": "%"}, {"measurement": "viability at 50 µM", "value": "86.5 ± 7.27", "unit": "%"}]}
{"compound": "CC(=O)OC[C@H]1O[C@H](n2cc(COc3cc(-c4ccc5ccccc5c4)nc4ccnn34)nn2)[C@@H](OC(C)=O)[C@@H](OC(C)=O)[C@@H]1OC(C)=O", "note": "[Compound 11h, (2R,3R,4S,5S,6S)-2-(acetoxymethyl)-6-(4-(((5-(naphthalen-2-yl)pyrazolo[1,5-a]pyrimidin-7-yl)oxy)methyl)-1H-1,2,3-triazol-1-yl)tetrahydro-2H-pyran-3,4,5-triyl triacetate]", "values": [{"measurement": "viability at 10 µM", "value": "101 ± 9.28", "unit": "%"}, {"measurement": "viability at 25 µM", "value": "89.8 ± 2.22", "unit": "%"}, {"measurement": "viability at 50 µM", "value": "82.5 ± 5.45", "unit": "%"}]}
